B1: BMP4: bone morphogenetic protein 4, differentiation factor added to the culture medium (protein, UniProt P12644 293-408, looked up)
Bone morphogenetic protein 4: SPKHHSQRARKKNKNCRRHSLYVDFSDVGWNDWIVAPPGYQAFYCHGDCPFPLADHLNSTNHAIVQTLVNSVNSSIPKACCVPTELSAISMLYLDEYDKVVLKNYQEMVVEGCGCR

Key:
[1] = tested on: iPSCs derived mammary gland organoids; test: Flow cytometry quantification of mammary gland progenitor markers during 3D differentiation of iPSCs; format: cell-based, human; settings: 20 ng/mL BMP4, 1 μM RA, single or combination, 42 days or 31 days protocol, vs control condition
Description: In order to generate milk bioactives that closely resemble those found in human breast milk, different methods using bone morphogenetic protein 4 (BMP4) and retinoic acid (RA) in 42 days and 31 days as a shortened time-course protocol were established in a 3D-platform using iPSCs derived mammary gland organoids as a biomimetic model of the human mammary gland (FIG. 6).

[2] = tested on: iPS-derived mammary-gland cells; test: LC-MS/MS targeted proteomic analysis of osteopontin secretion in culture media; format: cell-based, human; settings: BMP4 and RA added to the differentiation culture medium

Row | Molecule | expression of mammary gland progenitor markers EpCAM (CD326), CD49f, MUC1 (CD227), GATA3 [1] | expression and secretion of milk-specific bioactive marker osteopontin (OPN) [2]
1 | CC1=C(/C=C/C(C)=C/C=C/C(C)=C/C(=O)O)C(C)(C)CCC1 [RA, retinoic acid] | can induce the expression of mammary gland progenitor markers | improve expression and secretion levels of milk-specific bioactive markers
2 | B1 | can induce the expression of mammary gland progenitor markers | improve expression and secretion levels of milk-specific bioactive markers

— patent US20260283968A1, “METHOD FOR PRODUCING MILK LIKE PRODUCTS” (SOCIÉTÉ DES PRODUITS NESTLÉ S.A., priority 2023, published 2026)
